The source of these data is PubChem BioAssay (NCI).

Among the test systems are 786-0 renal; A498 renal; ACHN renal; DU-145 prostate; HCC-2998 colon; HS 578T breast; MDA-MB-231 breast; MDA-MB-435; MDA-N; PC-3 prostate; SF-295 CNS; SR leukemia.
Common to all, as to experiment: NCI-60 cell line screen, 48 h

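In this assay, cells in 96-well plates receive the compound at five concentrations for 48 hours. Endpoints are linearly interpolated between the surrounding concentrations. GI50 is the concentration that inhibits growth by half. At the TGI there is no net growth.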

Turning to `CC(=O)N1C(CCc2ccccc2)CC(C)(C=O)C1Cc1ccc(O[Si](C(C)C)(C(C)C)C(C)C)cc1` (stereo unspecified), the TGI in the test with 786-0 renal was found to be 6.43 µM; in the test on A498 renal, 14.3 µM; with ACHN renal, 18.8 µM; in the test with DU-145 prostate, 18.9 µM; in the test on HCC-2998 colon, 4.62 µM; with HS 578T breast, 8.96 µM. Also, the TGI was 11.1 µM with MDA-MB-231 breast; 8.39 µM in the test on MDA-MB-435; 6.4 µM in the test with MDA-N; 12.8 µM with PC-3 prostate; 19.6 µM in the test with SF-295 CNS; over 21.7 µM in the test on SR leukemia.
As to `COCCNCc1ccc(-c2cc3nccc(Oc4ccc(NC(=O)C5(C(=O)Nc6ccc(F)cc6)CC5)cc4F)c3s2)nc1`, the GI50 in the test with DU-145 prostate was 2.06 µM; in the test on HS 578T breast, 1.06 µM; with MDA-MB-435, 1.31 µM; in the test on PC-3 prostate it was 1.81 µM; in the test with SR leukemia, 1.96 µM. For the same compound, the TGI with DU-145 prostate is 4.51 µM; in the test on HS 578T breast it was 4 µM; with MDA-MB-435, 2.68 µM; in the test on PC-3 prostate, 5 µM; in the test with SR leukemia, 6.04 µM.
Turning to `Cc1ccc(C(C)C)c(OCC(=O)N/N=C/c2c[nH]c3ccc(Br)cc23)c1`, the TGI with 786-0 renal came to 12.6 µM; in the test with A498 renal, 15.5 µM; in the test with ACHN renal, 16.5 µM; in the test with DU-145 prostate it was 8.06 µM; in the test on HS 578T breast, 20.2 µM; with MDA-MB-231 breast it was 9.89 µM. The TGI turned out to be 2.93 µM in the test on MDA-MB-435; 2.94 µM with MDA-N; 4.43 µM in the test with PC-3 prostate; 10.7 µM with SF-295 CNS; 4.97 µM with SR leukemia.
On to `Nc1nc(Cl)c(N)c(NCC2(CO)CCC(CCc3ccccc3)C2)n1` (stereo unspecified), for which the TGI in the test on 786-0 renal is 61.2 µM; in the test on A498 renal, 49.5 µM; with ACHN renal, over 68.9 µM; with DU-145 prostate, 55.1 µM; in the test with HCC-2998 colon it was 31.9 µM; with HS 578T breast, over 63.8 µM. Besides, the TGI stood at 34.4 µM in the test on MDA-MB-231 breast; 27 µM with MDA-MB-435; 33.7 µM in the test with MDA-N; 49.7 µM in the test on PC-3 prostate; 29.8 µM in the test on SF-295 CNS.
For `O=S(O)CCCSSSCCCS(=O)O`, the TGI in the test on A498 renal, in the test on ACHN renal, in the test with HCC-2998 colon and with SR leukemia was over 100 µM each time.
For the compound `COc1cc(NCCC(=O)O)c2ncccc2c1`, the TGI in the test on 786-0 renal, in the test with A498 renal, in the test with ACHN renal, in the test with HS 578T breast, with MDA-MB-231 breast and in the test with MDA-MB-435 was over 100 µM each time. The TGI in the test on MDA-N, in the test with PC-3 prostate, in the test with SF-295 CNS and with SR leukemia was over 100 µM throughout.
As for `CSCC(CO)NC(=O)/C=C/c1c(C)[nH]c(=O)[nH]c1=O` (stereo unspecified), the TGI is over 875 µM in the test with A498 renal, 479 µM with HCC-2998 colon and over 875 µM with SF-295 CNS.
For `Clc1cc(OCc2nn3c(Cc4ccccc4)nnc3s2)c(Cl)cc1OCc1nn2c(Cc3ccccc3)nnc2s1`, the TGI was over 100 µM in the test on 786-0 renal; 88.5 µM in the test on A498 renal; over 100 µM in the test on ACHN renal; over 100 µM with DU-145 prostate; over 100 µM in the test on HCC-2998 colon; over 100 µM in the test with HS 578T breast. For the same compound, the TGI in the test on MDA-MB-231 breast is over 100 µM; in the test on MDA-MB-435, over 100 µM; in the test on MDA-N, over 100 µM; in the test with PC-3 prostate, over 100 µM; in the test on SF-295 CNS, over 100 µM; in the test with SR leukemia, 10.4 µM.
Take `Cc1ccc(Nc2nc(=O)c3c([nH]c4ccccc43)s2)cc1`: the TGI with 786-0 renal is 27.6 µM; in the test with A498 renal, 37.4 µM; in the test with ACHN renal, 35.4 µM; with DU-145 prostate it was 32.5 µM; in the test with HS 578T breast, 75 µM; with MDA-MB-231 breast, 33.8 µM. Further, the TGI with MDA-MB-435 was 7.4 µM; in the test with MDA-N, 5.87 µM; with PC-3 prostate, 28.3 µM; with SF-295 CNS, 24.3 µM; in the test with SR leukemia, over 100 µM.
For the compound `S=c1[nH]n2c(COc3ccc(Cl)cc3)nnc2s1`, the TGI in the test with 786-0 renal, in the test on ACHN renal, with DU-145 prostate, in the test on HCC-2998 colon, in the test on MDA-MB-231 breast and with MDA-MB-435 was over 100 µM in each case. Moreover, the TGI with PC-3 prostate, in the test with SF-295 CNS and in the test on SR leukemia was over 100 µM throughout.
As to `COc1ccc(CCc2ccc3c(c2)OCO3)cc1`, the TGI in the test on 786-0 renal, in the test with A498 renal, in the test on ACHN renal, with DU-145 prostate, with HCC-2998 colon and in the test with HS 578T breast was over 100 µM in each case. The TGI was over 100 µM with MDA-MB-231 breast; 42.6 µM with MDA-MB-435; over 100 µM with MDA-N; over 100 µM in the test on PC-3 prostate; over 100 µM in the test on SF-295 CNS; 45.4 µM with SR leukemia.
Turning to `NNC(=O)c1cc([N+](=O)[O-])ccc1NC(=O)C12CC3CC(CC(C3)C1)C2`, the TGI with 786-0 renal was over 100 µM; in the test with ACHN renal, 36.1 µM; in the test with DU-145 prostate, over 100 µM; with HCC-2998 colon it was 83.4 µM; in the test with HS 578T breast, 28.8 µM; in the test with MDA-MB-231 breast, 56.5 µM. Moreover, the TGI in the test with MDA-MB-435 is 48.5 µM; in the test on MDA-N, over 100 µM; with PC-3 prostate, over 100 µM; in the test with SF-295 CNS it was 63 µM; in the test with SR leukemia, 55.6 µM.
Consider `c1ccc2c(c1)SCCc1cn[nH]c1-2`, for which the TGI in the test with A498 renal, in the test with HCC-2998 colon and in the test with SF-295 CNS was over 100 µM each time.
On to `c1csc(-c2ccc(CNc3c4ccccc4nc4ccccc34)cc2)c1`, for which the GI50 was 1.22 µM in the test on A498 renal; 1.65 µM with DU-145 prostate; 1.53 µM with HCC-2998 colon; 0.322 µM in the test on MDA-MB-435; 1.08 µM in the test with PC-3 prostate; 1.31 µM in the test on SF-295 CNS. The TGI in the test with A498 renal stood at 2.52 µM; in the test with DU-145 prostate, 3.07 µM; with HCC-2998 colon it was 3.01 µM; in the test with MDA-MB-435 it was 1.09 µM; with PC-3 prostate it was 2.47 µM; with SF-295 CNS, 2.67 µM.
